Measurements as given in patent publication US20230331673A1, “COMPOSITION OF COMPOUNDS THAT MODULATE CELL METABOLISM AND METHODS OF USE” (CRESCENTA BIOSCIENCES, priority 2020, published 2023).

System: differentiated 3T3-L1 mouse adipocyte cells
Experiment: Adipocyte glucose consumption in differentiated 3T3-L1 mouse adipocyte cells (loss of glucose from medium, colorimetric)
Type: cell-based
Details: compound 10 μM, 22 to 24 hours, differentiated 3T3-L1 adipocytes, compound/DMSO, read-out: Glucose consumption (fold change) Mean
Procedure: Activity of compounds on adipocyte glucose consumption was tested in differentiated 3T3-L1 mouse adipocyte cells. 3T3-L1 preadipocytes (ATCC) were routinely cultured in a growth medium composed of DMEM high-glucose (Sigma), 10% FBS (Gibco), 10 U/ml penicillin and 10 μg/ml streptomycin (P/S; Gibco). To induce adipogenic differentiation, a confluent layer of 3T3-L1 cells were incubated with the growth medium containing 2 μM rosiglitazone, 1 μM dexamethasone, 500 μM IBMX, and 1 μg/ml insulin (Sigma). Forty-eight (48) hours later (on day 2) and on days 4 and 6, medium of the cells was replaced with fresh medium containing 1 μg/ml insulin. On days 8 and 10, the medium was refreshed with regular growth medium and addition of insulin was omitted. On day 11 or 12, medium of the cells were replaced with fresh medium containing either the indicated compounds (10 μM) or the vehicle in which the compounds were dissolved (DMSO). The final concentration of DMSO was 0.1% (v/v). Growth medium containing 0.1% DMSO was incubated in culture wells containing no cells and used as control. Twenty-two to 24 hours later, medium was harvested and subjected to centrifugation at 10,000 g for 5 min. Glucose concentration in the supernatants was determined using a colorimetric assay (Glucose Assay Kit I, Eton Biosciences). Glucose consumption in compound and vehicle treated cells was measured as loss of glucose from the culture medium and represented as mean fold change (compound/DMSO) t standard deviation (SD).

SMILES | fold induction at 10 µM
CCCCC1CCCc2c1n(Cc1cccc(C(N)=O)c1)c1c(C(=O)O)cccc21 (stereo not shown) [1-butyl-9-[(3-carbamoylphenyl)methyl]-2,3,4,9-tetrahydro-1H-carbazole-8-carboxylic acid] | 1.02
CCCCC1CCCc2c1n(Cc1cccc(C#N)c1)c1c(C(=O)O)cccc21 (stereo not shown) [1-butyl-9-[(3-cyanophenyl)methyl]-2,3,4,9-tetrahydro-1H-carbazole-8-carboxylic acid] | 1.14
CCCCC1CCCc2c(n(Cc3cccc(C(N)=O)c3)c3c(C(=O)NCC(=O)O)cccc23)C1 (stereo not shown) [2-({7-butyl-5-[(3-carbamoylphenyl)methyl]-5H,6H,7H,8H,9H,10H-cyclohepta[b]indol-4-yl}formamido)acetic acid] | 0.9
CCCCC1CCCc2c(n(Cc3cccc(C#N)c3)c3c(C(=O)NCC(=O)O)cccc23)C1 (stereo not shown) [2-({7-butyl-5-[(3-cyanophenyl)methyl]-5H,6H,7H,8H,9H,10H-cyclohepta[b]indol-4-yl}formamido)acetic acid] | 1.2
CCCCC1Cc2c(n(Cc3cccc(C(N)=O)c3)c3c(C(=O)O)cccc23)C1 (stereo not shown) [2-butyl-4-[(3-carbamoylphenyl)methyl]-1H,2H,3H,4H-cyclopenta[b]indole-5-carboxylic acid] | 1.14
CCCCC1Cc2c(n(Cc3cccc(C#N)c3)c3c(C(=O)O)cccc23)C1 (stereo not shown) [2-butyl-4-[(3-cyanophenyl)methyl]-1H,2H,3H,4H-cyclopenta[b]indole-5-carboxylic acid] | 1.28
CCCCC1CCc2c(n(Cc3cccc(C(N)=O)c3)c3c(C(=O)O)cccc23)C1 (stereo not shown) [2-butyl-9-[(3-carbamoylphenyl)methyl]-2,3,4,9-tetrahydro-1H-carbazole-8-carboxylic acid] | 1.1
CCCCCCC1CCc2c(n(Cc3ccnc(OC)c3)c3c(C(=O)O)cccc23)C1 (stereo not shown) [2-hexyl-9-[(2-methoxypyridin-4-yl)methyl]-2,3,4,9-tetrahydro-1H-carbazole-8-carboxylic acid] | 1.19
CCCCCCC1CCc2c(n(Cc3ccccc3C)c3c(C(=O)O)cccc23)C1 (stereo not shown) [2-hexyl-9-[(2-methylphenyl)methyl]-2,3,4,9-tetrahydro-1H-carbazole-8-carboxylic acid] | 1.23
CCCCCCC1CCc2c(n(Cc3cccc(O)c3)c3c(C(=O)O)cccc23)C1 (stereo not shown) [2-hexyl-9-[(3-hydroxyphenyl)methyl]-2,3,4,9-tetrahydro-1H-carbazole-8-carboxylic acid] | 1.11
CCCCCCC1CCc2c(n(Cc3cccnc3)c3c(C(=O)O)cccc23)C1 (stereo not shown) [2-hexyl-9-[(pyridin-3-yl)methyl]-2,3,4,9-tetrahydro-1H-carbazole-8-carboxylic acid] | 1.21
CCCCC1CCc2c1n(Cc1cccc(C(N)=O)c1)c1c(C(=O)O)cccc21 (stereo not shown) [3-butyl-4-[(3-carbamoylphenyl)methyl]-1H,2H,3H,4H-cyclopenta[b]indole-5-carboxylic acid] | 1.15
CCCCC1CCc2c1n(Cc1cccc(C#N)c1)c1c(C(=O)O)cccc21 (stereo not shown) [3-butyl-4-[(3-cyanophenyl)methyl]-1H,2H,3H,4H-cyclopenta[b]indole-5-carboxylic acid] | 1.21
CCCCC1CCc2c(c3cccc(C(=O)O)c3n2Cc2cccc(C(N)=O)c2)C1 (stereo not shown) [3-butyl-9-[(3-carbamoylphenyl)methyl]-2,3,4,9-tetrahydro-1H-carbazole-8-carboxylic acid] | 1.09
CCCCC1CCc2c(c3cccc(C(=O)O)c3n2Cc2cccc(C#N)c2)C1 (stereo not shown) [3-butyl-9-[(3-cyanophenyl)methyl]-2,3,4,9-tetrahydro-1H-carbazole-8-carboxylic acid] | 1.14
CCCCCC1Cc2c(n(Cc3cccc(C(N)=O)c3)c3c(C(=O)O)cccc23)C1 (stereo not shown) [4-[(3-carbamoylphenyl)methyl]-2-pentyl-1H,2H,3H,4H-cyclopenta[b]indole-5-carboxylic acid] | 0.68
CCC1CCc2c1n(Cc1cccc(C(N)=O)c1)c1c(C(=O)O)cccc21 (stereo not shown) [4-[(3-carbamoylphenyl)methyl]-3-ethyl-1H,2H,3H,4H-cyclopenta[b]indole-5-carboxylic acid] | 1.02
CCCC1CCc2c1n(Cc1cccc(C(N)=O)c1)c1c(C(=O)O)cccc21 (stereo not shown) [4-[(3-carbamoylphenyl)methyl]-3-propyl-1H,2H,3H,4H-cyclopenta[b]indole-5-carboxylic acid] | 1.18
CCCCCC1Cc2c(n(Cc3cccc(C#N)c3)c3c(C(=O)O)cccc23)C1 (stereo not shown) [4-[(3-cyanophenyl)methyl]-2-pentyl-1H,2H,3H,4H-cyclopenta[b]indole-5-carboxylic acid] | 1.18

SMILES | fold induction at 10 µM
CCC1CCc2c1n(Cc1cccc(C#N)c1)c1c(C(=O)O)cccc21 (stereo not shown) [4-[(3-cyanophenyl)methyl]-3-ethyl-1H,2H,3H,4H-cyclopenta[b]indole-5-carboxylic acid] | 1.12
CCCC1CCc2c1n(Cc1cccc(C#N)c1)c1c(C(=O)O)cccc21 (stereo not shown) [4-[(3-cyanophenyl)methyl]-3-propyl-1H,2H,3H,4H-cyclopenta[b]indole-5-carboxylic acid] | 1.38
CCCCC1CCCc2c1c1cccc(C(=O)O)c1n2Cc1cccc(C(N)=O)c1 (stereo not shown) [4-butyl-9-[(3-carbamoylphenyl)methyl]-2,3,4,9-tetrahydro-1H-carbazole-8-carboxylic acid] | 1.35
CCCCC1CCCc2c1c1cccc(C(=O)O)c1n2Cc1cccc(C#N)c1 (stereo not shown) [4-butyl-9-[(3-cyanophenyl)methyl]-2,3,4,9-tetrahydro-1H-carbazole-8-carboxylic acid] | 1.28
CCCCCCC1CCCc2c(n(Cc3ccc4ncoc4c3)c3c(C(=O)O)cccc23)C1 (stereo not shown) [5-[(1,3-benzoxazol-6-yl)methyl]-7-hexyl-5H,6H,7H,8H,9H,10H-cyclohepta[b]indole-4-carboxylic acid] | 1.17
CCCCCCC1CCCc2c(n(Cc3ccccc3C(N)=O)c3c(C(=O)O)cccc23)C1 (stereo not shown) [5-[(2-carbamoylphenyl)methyl]-7-hexyl-5H,6H,7H,8H,9H,10H-cyclohepta[b]indole-4-carboxylic acid] | 0.97
CCCCCCC1CCCc2c(n(Cc3ccccc3F)c3c(C(=O)O)cccc23)C1 (stereo not shown) [5-[(2-fluorophenyl)methyl]-7-hexyl-5H,6H,7H,8H,9H,10H-cyclohepta[b]indole-4-carboxylic acid] | 1.17
CCCCCCC1CCCc2c(n(Cc3c(C)noc3C)c3c(C(=O)O)cccc23)C1 (stereo not shown) [5-[(3,5-dimethyl-1,2-oxazol-4-yl)methyl]-7-hexyl-5H,6H,7H,8H,9H,10H-cyclohepta[b]indole-4-carboxylic acid] | 0.95
CCC1CCCc2c(n(Cc3cccc(C(N)=O)c3)c3c(C(=O)O)cccc23)C1 (stereo not shown) [5-[(3-carbamoylphenyl)methyl]-7-ethyl-5H,6H,7H,8H,9H,10H-cyclohepta[b]indole-4-carboxylic acid] | 0.96
CCCCCCC1CCCc2c(n(Cc3cccc(C(N)=O)c3)c3c(C(=O)O)cccc23)C1 (stereo not shown) [5-[(3-carbamoylphenyl)methyl]-7-hexyl-5H,6H,7H,8H,9H,10H-cyclohepta[b]indole-4-carboxylic acid] | 1.26
CCCCCCCCC1CCCc2c(n(Cc3cccc(C(N)=O)c3)c3c(C(=O)O)cccc23)C1 (stereo not shown) [5-[(3-carbamoylphenyl)methyl]-7-octyl-5H,6H,7H,8H,9H,10H-cyclohepta[b]indole-4-carboxylic acid] | 1.13
CCCCCC1CCCc2c(n(Cc3cccc(C(N)=O)c3)c3c(C(=O)O)cccc23)C1 (stereo not shown) [5-[(3-carbamoylphenyl)methyl]-7-pentyl-5H,6H,7H,8H,9H,10H-cyclohepta[b]indole-4-carboxylic acid] | 1.27
CCCC1CCCc2c(n(Cc3cccc(C(N)=O)c3)c3c(C(=O)O)cccc23)C1 (stereo not shown) [5-[(3-carbamoylphenyl)methyl]-7-propyl-5H,6H,7H,8H,9H,10H-cyclohepta[b]indole-4-carboxylic acid] | 1.06
CCC1CCCCc2c1c1cccc(C(=O)O)c1n2Cc1cccc(C(N)=O)c1 (stereo not shown) [5-[(3-carbamoylphenyl)methyl]-10-ethyl-5H,6H,7H,8H,9H,10H-cyclohepta[b]indole-4-carboxylic acid] | 0.99
CCCCCC1CCCCc2c1c1cccc(C(=O)O)c1n2Cc1cccc(C(N)=O)c1 (stereo not shown) [5-[(3-carbamoylphenyl)methyl]-10-pentyl-5H,6H,7H,8H,9H,10H-cyclohepta[b]indole-4-carboxylic acid] | 1.27
CCCC1CCCCc2c1c1cccc(C(=O)O)c1n2Cc1cccc(C(N)=O)c1 (stereo not shown) [5-[(3-carbamoylphenyl)methyl]-10-propyl-5H,6H,7H,8H,9H,10H-cyclohepta[b]indole-4-carboxylic acid] | 1.02
CCCCCCC1CCCc2c(n(Cc3cccc(C(=O)O)c3)c3c(C(=O)O)cccc23)C1 (stereo not shown) [5-[(3-carboxyphenyl)methyl]-7-hexyl-5H,6H,7H,8H,9H,10H-cyclohepta[b]indole-4-carboxylic acid] | 1.15
CCCCCCC1CCCc2c(n(Cc3cccc(Cl)c3)c3c(C(=O)O)cccc23)C1 (stereo not shown) [5-[(3-chlorophenyl)methyl]-7-hexyl-5H,6H,7H,8H,9H,10H-cyclohepta[b]indole-4-carboxylic acid] | 1.18
